The subject of the test is JAK1/TYK2. Put plainly: Co-stimulation assay in lysed whole blood: IFNa (JAK1/TYK2) stimulated STAT1 phosphorylation. The test is classed as cell-based. The settings on record: lysed human whole blood, IFNa 100 ng/mL, pSTAT1 by flow cytometry; read-out: IFN-a/Jak1Tyk2 IC50. As to the method:
Example 16: Co-Stimulation Assay in Lysed Whole Blood; JAK2: GM-CSF Stimulated STAT5 Phosphorylation and JAK1/TYK2 Stimulated STAT1 Phosphorylation Assay
Dilute RBC lysis buffer to 1× in distilled water. Add 2 mL blood to 38 mL of 1×RBC-lysis buffer. Incubate for 15 mins at RT, in dark. Spin at 300 g, 5 mins, to collect the pellet. Re-lyse if necessary. Re-suspend pellet in 5 mL of cRPMI.
Aliquot 80 μL of lysed human blood in to wells of 96 deep-well plate. Add 10 μL of (10× conc.) of different concentrations of Compound 1 to all wells except controls (unstained and unstimulated) and mix it with the help of 100 uL multichannel. Add 10 uL of RPMI media in controls. For dilution of Compound 1 and dilution range please refer Appendix. Incubate on water bath or CO2 incubator for 1 hour at 37° C. Add 10 μL of (10× conc.) of cytokine mix (GM-CSF and IFNa) (final conc. 10 ng/mL of GM-CSF and 100 ng/mL of IFNa) to each well except unstimulated and unstained controls and incubate further for 20 minutes on water bath at 37° C.
Add 900 μL of prewarmed 1× Fix/Lyse solution (Appendix) and mix it properly using 1000 μl multichannel, incubate further on water bath at 37° C. for 10 minutes (which includes time of addition). Centrifuge at 800×g for 5 minutes at 40° C.; remove 900 uL of supernatant and add 900 μL of 1×PBS. Centrifuge at 800×g for 5 minutes at 40° C., remove 900 μL of supernatant. […]
On the technique in general: A flow cytometer gives signals particle by particle.

Structures are written as SMILES. Where only a bound is given, the exact number is not on record here.

As for `CNc1cc(Nc2cc(F)cc3c2OCCO3)nc2c(NC(=O)N[C@@H]3C[C@@H]3F)cnn12` [Compound 1, 1-(5-((7-fluoro-2,3-dihydrobenzo[b][1,4]dioxin-5-yl)amino)-7-(methylamino)pyrazolo[1,5-a]pyrimidin-3-yl)-3-((1R,2S)-2-fluorocyclopropyl)urea], the IC50 is below 1000 nM.

Source of the values: US20240010654A1, “CRYSTALLINE FORMS OF A TYK2 INHIBITOR” (Ventyx Biosciences, Inc., priority 2022, published 2024).
